Article PMC11200976, “Pitavastatin Calcium Confers Fungicidal Properties to Fluconazole by Inhibiting Ubiquinone Biosynthesis and Generating Reactive Oxygen Species” (Antioxidants, 2024)
Structures can show the parent of a compound that is named as a salt.

The compounds below were run on C. albicans (assay: Broth microdilution assay of synergistic lethality with 4 μg/mL FLC (recovery on drug-free YPD)). Details: concentration of the compound that is synergistically lethal with 4 μg/mL FLC; C. albicans; recovery on drug-free YPD.
Assay type: cell-based, Candida albicans

Question: Which Synergistic lethal concentrations does the source give for CC(C(=O)[O-])c1cccc(Oc2ccccc2)c1.CC(C(=O)[O-])c1cccc(Oc2ccccc2)c1.O.O.[Ca+2] (stereo not drawn) [Fenoprofen (Calcium hydrate)] here?
Answer: 100 µM

Question: Which Synergistic lethal concentrations does the source give for O=C(O)c1ccccc1Nc1cccc(C(F)(F)F)c1 [Flufenamic acid] here?
Answer: 100 µM

Question: With Cl.Cl.Fc1ccc(C(c2ccc(F)cc2)N2CCN(C/C=C/c3ccccc3)CC2)cc1 [Flunarizine (dihydrochloride)] as the compound, how does the Synergistic lethal concentrations read?
Answer: 50 µM

Question: With CC(C)n1c(/C=C/C(O)CC(O)CC(=O)[O-])c(-c2ccc(F)cc2)c2ccccc21.[Na+] (stereo not drawn) [Fluvastatin (sodium)] as the compound, how does the Synergistic lethal concentrations read?
Answer: 6.25 µM

Question: For COCCCC/C(=N\OCCN)c1ccc(C(F)(F)F)cc1.O=C(O)/C=C\C(=O)O [Fluvoxamine (maleate)], which Synergistic lethal concentrations is on record?
Answer: 100 µM

Question: With O=C(CCCN1CCC(O)(c2ccc(Cl)cc2)CC1)c1ccc(F)cc1 [Haloperidol] as the compound, how does the Synergistic lethal concentrations read?
Answer: 100 µM

Question: For CCCCCCc1ccc(O)cc1O [Hexylresorcinol], which Synergistic lethal concentrations is on record?
Answer: 12.5 µM

Question: Cl.Cl.OCCOCCN1CCN(C(c2ccccc2)c2ccc(Cl)cc2)CC1 (stereo not drawn) [Hydroxyzine (dihydrochloride)] was tested. Which Synergistic lethal concentrations did it give?
Answer: 100 µM

Question: How did the Synergistic lethal concentrations turn out when O=C(O)c1cc2ccccc2c(Cc2c(O)c(C(=O)O)cc3ccccc23)c1O.OCCOCCN1CCN(C(c2ccccc2)c2ccc(Cl)cc2)CC1 [Hydroxyzine (pamoate)] was run?
Answer: 100 µM

Question: How did the Synergistic lethal concentrations turn out when COc1ccc2c(c1)c(CC(=O)O)c(C)n2C(=O)c1ccc(Cl)cc1 [Indomethacin] was run?
Answer: 100 µM

Question: C/C=C(/C)C(=O)O[C@H]1C(C)=C[C@]23C(=O)[C@@H](C=C(CO)[C@@H](O)[C@]12O)[C@H]1[C@@H](C[C@H]3C)C1(C)C [Ingenol Mebutate] was tested. Which Synergistic lethal concentrations did it give?
Answer: 100 µM

Question: For COC(=O)N[C@H](C(=O)N1CC2(CC2)C[C@H]1c1nc(-c2ccc3c(c2)C(F)(F)c2cc(-c4ccc5[nH]c([C@@H]6[C@H]7CC[C@H](C7)N6C(=O)[C@@H](NC(=O)OC)C(C)C)nc5c4)ccc2-3)c[nH]1)C(C)C [Ledipasvir], which Synergistic lethal concentrations is on record?
Answer: 100 µM

Question: With CCOC(=O)C1=C(COCCN)NC(C)=C(C(=O)OC)[C@@H]1c1ccccc1Cl.O=S(=O)(O)c1ccccc1 [Levamlodipine besylate] as the compound, how does the Synergistic lethal concentrations read?
Answer: 100 µM

Question: Which Synergistic lethal concentrations does the source give for O=C(NC1CCN(CCCCC2(C(=O)NCC(F)(F)F)c3ccccc3-c3ccccc32)CC1)c1ccccc1-c1ccc(C(F)(F)F)cc1 [Lomitapide] here?
Answer: 6.25 µM

Question: How did the Synergistic lethal concentrations turn out when CC[C@H](C)C(=O)O[C@H]1C[C@@H](C)C=C2C=C[C@H](C)[C@H](CC[C@@H]3C[C@@H](O)CC(=O)O3)[C@H]21 [Lovastatin] was run?
Answer: 100 µM

Question: Which Synergistic lethal concentrations does the source give for CN1CCN(C2=Nc3ccccc3Oc3ccc(Cl)cc32)CC1 [Loxapine] here?
Answer: 100 µM

Question: Which Synergistic lethal concentrations does the source give for C=CCc1ccc(O)c(-c2cc(CC=C)ccc2O)c1 [Magnolol] here?
Answer: 12.5 µM

Question: For CNCCCC12CCC(c3ccccc31)c1ccccc12.Cl [Maprotiline (hydrochloride)], which Synergistic lethal concentrations is on record?
Answer: 50 µM

Question: How did the Synergistic lethal concentrations turn out when CN1CCc2c(c3ccccc3n2Cc2ccccc2)C1.CN1CCc2c(c3ccccc3n2Cc2ccccc2)C1.O=S(=O)(O)c1cccc2c(S(=O)(=O)O)cccc12 [Mebhydrolin (napadisylate)] was run?
Answer: 100 µM

Question: How did the Synergistic lethal concentrations turn out when CN1CCc2c(c3ccccc3n2Cc2ccccc2)C1 [Mebhydrolin] was run?
Answer: 100 µM

Question: With Cl.OC(c1cc(C(F)(F)F)nc2c(C(F)(F)F)cccc12)C1CCCCN1 (stereo not drawn) [Mefloquine (hydrochloride)] as the compound, how does the Synergistic lethal concentrations read?
Answer: 25 µM

Question: How did the Synergistic lethal concentrations turn out when CN(C)CCC=C1c2ccccc2C(C)(C)c2ccccc21.Cl [Melitracen (hydrochloride)] was run?
Answer: 50 µM

Question: For CC1=CC(=O)c2ccccc2C1=O [Menadione], which Synergistic lethal concentrations is on record?
Answer: 100 µM

Question: c1ccc2c(c1)Sc1ccccc1N2CC1CN2CCC1CC2 (stereo not drawn) [Mequitazine] was tested. Which Synergistic lethal concentrations did it give?
Answer: 25 µM

Question: With CN1C[C@H](CNC(=O)OCc2ccccc2)C[C@@H]2c3cccc4c3c(cn4C)C[C@H]21 [Metergoline] as the compound, how does the Synergistic lethal concentrations read?
Answer: 100 µM

Question: Which Synergistic lethal concentrations does the source give for CN1CCCC(CC2c3ccccc3Sc3ccccc32)C1.Cl.O (stereo not drawn) [Metixene hydrochloride hydrate] here?
Answer: 25 µM

Question: Which Synergistic lethal concentrations does the source give for CCCCCCCCCCCCCCCCOP(=O)([O-])OCC[N+](C)(C)C [Miltefosine] here?
Answer: 100 µM

Question: CCCOc1ccc(S(=O)(=O)N2CCN(CCO)CC2)cc1-c1nc2c(CCC)cn(CC)c2c(=O)[nH]1.Cl.Cl [Mirodenafil (dihydrochloride)] was tested. Which Synergistic lethal concentrations did it give?
Answer: 100 µM

Question: With NC(=O)Cc1cccc(C(=O)c2ccccc2)c1N [Nepafenac] as the compound, how does the Synergistic lethal concentrations read?
Answer: 100 µM

Question: COC(=O)C1=C(C#N)NC(C)=C(C(=O)OC(C)C)C1c1cccc([N+](=O)[O-])c1 (stereo not drawn) [Nilvadipine] was tested. Which Synergistic lethal concentrations did it give?
Answer: 100 µM

Question: COC(=O)c1ccc2c(c1)NC(=O)/C2=C(\Nc1ccc(N(C)C(=O)CN2CCN(C)CC2)cc1)c1ccccc1 [Nintedanib] was tested. Which Synergistic lethal concentrations did it give?
Answer: 100 µM

Question: With CNCCC=C1c2ccccc2CCc2ccccc21.Cl [Nortriptyline (hydrochloride)] as the compound, how does the Synergistic lethal concentrations read?
Answer: 100 µM

Question: With CCCCCCCCN=c1ccn(CCCCCCCCCCn2ccc(=NCCCCCCCC)cc2)cc1.Cl.Cl [Octenidine (dihydrochloride)] as the compound, how does the Synergistic lethal concentrations read?
Answer: 1.5625 µM

Question: With C=CC(=O)Nc1cccc(Oc2nc(Nc3ccc(N4CCN(C)CC4)cc3)nc3ccsc23)c1 [Olmutinib] as the compound, how does the Synergistic lethal concentrations read?
Answer: 100 µM

Question: With C=CC(=O)Nc1cc(Nc2nccc(-c3cn(C)c4ccccc34)n2)c(OC)cc1N(C)CCN(C)C.CS(=O)(=O)O.CS(=O)(=O)O [Osimertinib (dimesylate)] as the compound, how does the Synergistic lethal concentrations read?
Answer: 100 µM

Question: C=CC(=O)Nc1cc(Nc2nccc(-c3cn(C)c4ccccc34)n2)c(OC)cc1N(C)CCN(C)C.CS(=O)(=O)O [Osimertinib mesylate] was tested. Which Synergistic lethal concentrations did it give?
Answer: 50 µM

Question: How did the Synergistic lethal concentrations turn out when C=CC(=O)Nc1cc(Nc2nccc(-c3cn(C)c4ccccc34)n2)c(OC)cc1N(C)CCN(C)C [Osimertinib] was run?
Answer: 100 µM

Question: With CCCCCCCCOc1ccccc1C(=O)Nc1ccc(C(=O)OCC[N+](C)(CC)CC)cc1.[Br-] [Otilonium (bromide)] as the compound, how does the Synergistic lethal concentrations read?
Answer: 6.25 µM

Question: For O=C(O)CCc1nc(-c2ccccc2)c(-c2ccccc2)o1 [Oxaprozin], which Synergistic lethal concentrations is on record?
Answer: 100 µM

Question: CN(C(=O)CN(CCO)CC(=O)N(C)C(C)(C)Cc1ccccc1)C(C)(C)Cc1ccccc1 [Oxethazaine] was tested. Which Synergistic lethal concentrations did it give?
Answer: 50 µM

Question: How did the Synergistic lethal concentrations turn out when Cc1[nH]c2ccccc2c1CCNCc1ccc(/C=C/C(=O)NO)cc1 [Panobinostat] was run?
Answer: 100 µM

Question: Cl.Fc1ccc([C@@H]2CCNC[C@H]2COc2ccc3c(c2)OCO3)cc1 [Paroxetine (hydrochloride)] was tested. Which Synergistic lethal concentrations did it give?
Answer: 50 µM

Question: With C1CCC(C(CC2CCCCN2)C2CCCCC2)CC1 (stereo not drawn) [Perhexiline maleate] as the compound, how does the Synergistic lethal concentrations read?
Answer: 50 µM

Question: For N#Cc1ccc2c(c1)N(CCCN1CCC(O)CC1)c1ccccc1S2 [Pericyazine], which Synergistic lethal concentrations is on record?
Answer: 100 µM

Question: How did the Synergistic lethal concentrations turn out when OCCN1CCN(CCCN2c3ccccc3Sc3ccc(Cl)cc32)CC1 [Perphenazine] was run?
Answer: 25 µM

Question: Which Synergistic lethal concentrations does the source give for CN1CCC(=C2c3ccccc3Sc3ccccc32)CC1 [Pimethixene maleate] here?
Answer: 12.5 µM

Question: Which Synergistic lethal concentrations does the source give for Cc1cc(CC(C)CC(C)(C)C)n(O)c(=O)c1.NCCO (stereo not drawn) [Piroctone olamine] here?
Answer: 100 µM

Question: For O=C([O-])C[C@H](O)C[C@H](O)/C=C/c1c(C2CC2)nc2ccccc2c1-c1ccc(F)cc1.O=C([O-])C[C@H](O)C[C@H](O)/C=C/c1c(C2CC2)nc2ccccc2c1-c1ccc(F)cc1.[Ca+2] [Pitavastatin (Calcium)], which Synergistic lethal concentrations is on record?
Answer: 1.5625 µM

Question: CN1CCC(=C2c3ccccc3CCc3sccc32)CC1 [Pizotifen] was tested. Which Synergistic lethal concentrations did it give?
Answer: 100 µM

Question: How did the Synergistic lethal concentrations turn out when Cc1ccc(C(=O)Nc2ccc(CN3CCN(C)CC3)c(C(F)(F)F)c2)cc1C#Cc1cnc2cccnn12 [Ponatinib] was run?
Answer: 100 µM

Question: For CO[C@]1(C(=O)N[C@@H](C)c2ccc(-n3cc(F)cn3)nc2)CC[C@H](c2nc(C)cc(Nc3cc(C)[nH]n3)n2)CC1 [Pralsetinib], which Synergistic lethal concentrations is on record?
Answer: 100 µM

Question: For CCCCOc1ccc(OCCCN2CCOCC2)cc1.Cl [Pramocaine (hydrochloride)], which Synergistic lethal concentrations is on record?
Answer: 100 µM

Question: [H]/N=C(\N/C(=N/[H])Nc1ccc(Cl)cc1)NC(C)C [Proguanil] was tested. Which Synergistic lethal concentrations did it give?
Answer: 100 µM

Question: How did the Synergistic lethal concentrations turn out when CNCCCC1c2ccccc2C=Cc2ccccc21.Cl [Protriptyline (hydrochloride)] was run?
Answer: 100 µM

Question: How did the Synergistic lethal concentrations turn out when O=C(O)/C=C/C(=O)O.OCCOCCN1CCN(C2=Nc3ccccc3Sc3ccccc32)CC1.OCCOCCN1CCN(C2=Nc3ccccc3Sc3ccccc32)CC1 [Quetiapine (hemifumarate)] was run?
Answer: 100 µM

Question: For OCCOCCN1CCN(C2=Nc3ccccc3Sc3ccccc32)CC1 [Quetiapine], which Synergistic lethal concentrations is on record?
Answer: 100 µM

Question: CC(C)(C)c1cc(NC(=O)Nc2ccc(-c3cn4c(n3)sc3cc(OCCN5CCOCC5)ccc34)cc2)no1 [Quizartinib] was tested. Which Synergistic lethal concentrations did it give?
Answer: 6.25 µM

Question: How did the Synergistic lethal concentrations turn out when COC(=O)[C@H]1[C@H]2C[C@@H]3c4[nH]c5cc(OC)ccc5c4CCN3C[C@H]2C[C@@H](OC(=O)c2cc(OC)c(OC)c(OC)c2)[C@@H]1OC.Cl [Reserpine (hydrochloride)] was run?
Answer: 100 µM

Question: COC(=O)[C@H]1[C@H]2C[C@@H]3c4[nH]c5cc(OC)ccc5c4CCN3C[C@H]2C[C@@H](OC(=O)c2cc(OC)c(OC)c(OC)c2)[C@@H]1OC [Reserpine] was tested. Which Synergistic lethal concentrations did it give?
Answer: 50 µM

Question: Which Synergistic lethal concentrations does the source give for C[C@@H](OC[C@@]1(c2ccccc2)CC[C@]2(CCC(=O)N2)CN1)c1cc(C(F)(F)F)cc(C(F)(F)F)c1 [Rolapitant] here?
Answer: 12.5 µM

Question: How did the Synergistic lethal concentrations turn out when CC(C)c1nc(N(C)S(C)(=O)=O)nc(-c2ccc(F)cc2)c1/C=C/[C@@H](O)C[C@@H](O)CC(=O)[O-].CC(C)c1nc(N(C)S(C)(=O)=O)nc(-c2ccc(F)cc2)c1/C=C/[C@@H](O)C[C@@H](O)CC(=O)[O-].[Ca+2] [Rosuvastatin (Calcium)] was run?
Answer: 50 µM

Question: How did the Synergistic lethal concentrations turn out when OCc1cc(C(O)CNCCCCCCOCCCCc2ccccc2)ccc1O (stereo not drawn) [Salmeterol] was run?
Answer: 100 µM

Question: CC(C)(C)NC(=O)[C@@H]1C[C@@H]2CCCC[C@@H]2CN1C[C@@H](O)[C@H](Cc1ccccc1)NC(=O)[C@H](CC(N)=O)NC(=O)c1ccc2ccccc2n1 [Saquinavir] was tested. Which Synergistic lethal concentrations did it give?
Answer: 50 µM
